Laboratory results published in patent publication US6605634B2 (Amgen, Inc., priority 1996, dated 2003).

These molecules were tested on production of tumor necrosis factor (TNF) by monocytes activated with bacterial lipopolysaccharide (LPS) (assay: Lipopolysaccharide-activated Monocyte TNF Production Assay). Conditions: Homo sapiens, TNF in culture supernatants by ELISA, read-out: IC50 (concentration of test compounds causing a 50% reduction in TNF production).
Format: cell-based
Protocol: Lipopolysaccharide-activated Monocyte TNF Production Assay
Test compounds were evaluated in vitro for the ability to inhibit the production of tumor necrosis factor (TNF) by monocytes activated with bacterial lipopolysaccharide (LPS). Fresh residual source leukocytes (a byproduct of plateletpheresis) were obtained from the local blood bank and peripheral blood mononuclear cells (PBMCs) were isolated by density gradient centrifugation on Ficol-Paque Plus (Pharmacia). PBMCs were suspended at 2×10^6/ml in DMEM supplemented to contain 2% FCS (10 mM), 0.3 mg/ml glutamate, 100 U/ml penicillin G and […] streptomycin sulfate (complete media). Cells were plated into Falcon flatbottom 96 well culture plates (200 μl/well) and cultured overnight at 37° C. and 6% CO2. Nonadherent cells were removed by washing with 200 μl/well of fresh medium. Wells containing adherent cells (˜70% monocytes) were replenished with 100 μl of fresh medium.
Preparation of Test Compound Stock Solutions
Test compounds were dissolved in […]. Compound stock solutions were prepared to an initial concentration of […]. Stocks were diluted initially to 20-200 μM in complete media. Nine two-fold serial dilutions of each compound were then prepared in complete medium.
Treatment of Cells with Test Compounds and Activation of TNF Production with Lipopolysaccharide
One hundred microliters of each test compound dilution were added to microtiter wells containing adherent monocytes and 100 μl complete medium. Monocytes were cultured with test compounds for 60 min at which time 25 μl of complete medium containing 30 ng/ml lipopolysaccharide from E. coli K532 were added to each well. Cells were cultured an additional 4 hrs. Culture supernatants were then removed and TNF present in the supernatants was quantified using an ELISA.
Flat bottom 96 well Coming High Binding ELISA plates were coated overnight (4° C.) with 150 μL/well of 3 μg/ml murine anti-human TNFa MAb (R&D Systems #MAB210). Wells were then blocked 1 h at room temperature with 200 μL/well of CaCl2-free ELISA buffer supplemented to contain 20 mg/ml BSA (standard ELISA buffer: […], 150 mM NaCl, 2 mM CaCl2, 0.15 mM thimerosal, pH 7.4). Plates were washed and replenished with 100 μl of test supernatants (diluted 1:3) or standards. Standards consisted of eleven 1.5-fold serial dilutions from a stock of 1 ng/ml recombinant human TNF (R&D Systems). Plates were incubated at room temperature for 1 h on orbital shaker (300 rpm), washed and replenished with 100 μl/well of 0.5 jig/ml goat anti-human TNFa (R&D systems #AB-210-NA) biotinylated at a 4:1 ratio. Plates were incubate for 40 min, washed and replenished with 100 μl/well of alkaline phosphatase-conjugated streptavidin (Jackson ImmunoResearch #016-050-084) at 0.02 μg/ml. Plates were incubated 30 min, washed and replenished with 200 μl well of 1 mg/ml of p-nitrophenyl phosphate. After 30 min, plates were read at 405 nm on a Vmax plate reader.
Standard curve data were fit to a second order polynomial and unknown TNF-a concentrations determined from their OD by solving this equation for concentration. TNF concentrations were then plotted Vs test compound concentration using a second order polynomial. This equation was then used to calculate the concentration of test compounds causing a 50% reduction in TNF production.

`NC(Cc1ccccc1)C(=O)Nc1ccc2c(-c3ccncc3)c(-c3ccc(F)cc3)[nH]c2n1` (racemic) [Compound 87, 6-(3′-phenyl-1′-oxo-2′-D,L-aminopropylamino)-3-(4-pyridyl)-2-(4-fluorophenyl)-7-aza-indole] and `N[C@@H](Cc1ccc(I)cc1)C(=O)Nc1ccc2c(-c3ccncc3)c(-c3ccc(F)cc3)[nH]c2n1` [Compound 71, 6-(3′-(4-iodophenyl)-1′-oxo-2′-aminopropylamino)-3-(4-pyridyl)-2-(4-fluorophenyl)-7-aza-indole] cannot be ordered by IC50: under 20 µM for the first, under 1 µM for the second.

`CC(CNc1ccc2c(-c3ccncc3)c(-c3ccc(F)cc3)[nH]c2n1)c1ccccc1` (racemic) [Compound 147, 6-(2′(R,S)-phenylpropylamino)-3-(4-pyridyl)-2-(4-fluorophenyl)-7-aza-indole] and `CC(=O)Nc1ccc2c(-c3ccncc3)c(-c3ccc(F)cc3)[nH]c2n1` [Compound 94, 6-(1′-oxo-ethylamino)-3-(4-pyridyl)-2-(4-fluorophenyl)-7-aza-indole] cannot be ordered by IC50: under 20 µM for the first, under 20 µM for the second.

`CCCCC(CC)CNc1ccc2c(-c3ccncc3)c(-c3ccc(F)cc3)[nH]c2n1` (racemic) [Compound 148, 6-(2′(R,S)-ethylhexylamino)-3-(4-pyridyl)-2-(4-fluorophenyl)-7-aza-indole] and `NCCC[C@H](N)C(=O)Nc1ccc2c(-c3ccncc3)c(-c3ccc(F)cc3)[nH]c2n1` [Compound 69, 6-(5′-amino-1′-oxo-2′-aminopentylamino)-3-(4-pyridyl)-2-(4-fluorophenyl)-7-aza-indole] cannot be ordered by IC50: under 20 µM for the first, under 20 µM for the second.

`Fc1ccc(-c2[nH]c3ccccc3c2-c2ccncc2)cc1` [Compound 3, 3-(4-pyridyl)-2-(4-fluorophenyl)indole] and `Nc1ccc2c(-c3ccncc3)c(-c3ccc(F)cc3)[nH]c2n1` [Compound 17, 6-Amino-3-(4-pyridyl)-2-(4-fluorophenyl)-7-aza-indole] cannot be ordered by IC50: under 20 µM for the first, under 1 µM for the second.

`Nc1ccc2c(-c3ccc(F)cc3)c(-c3ccncc3)[nH]c2n1` [Compound 18, 6-Amino-3-(4-fluorophenyl)-2-(4-pyridyl)-7-aza-indole] and `NCC(=O)Nc1ccc2c(-c3ccncc3)c(-c3ccc(F)cc3)[nH]c2n1` [Compound 92, 6-(2′-amino-1′-oxo-ethylamino)-3-(4-pyridyl)-2-(4-fluorophenyl)-7-aza-indole] cannot be ordered by IC50: under 20 µM for the first, under 1 µM for the second.

`CC(C)(C)OC(=O)NCCCC(=O)Nc1ccc2c(-c3ccncc3)c(-c3ccc(F)cc3)[nH]c2n1` [Compound 21, 6-(4′-t-butoxycarbonylamino-1′-oxo-butylamino)-3-(4-pyridyl)-2-(4-fluorophenyl)-7-aza-indole] and `CC(C)(C)OC(=O)NCC(=O)Nc1ccc2c(-c3ccncc3)c(-c3ccc(F)cc3)[nH]c2n1` [Compound 29, 6-(2′-t-butoxycarbonylamino-1′-oxo-ethylamino)-3-(4-pyridyl)-2-(4-fluorophenyl)-7-aza-indole] cannot be ordered by IC50: under 20 µM for the first, under 20 µM for the second.

`NCCCC(=O)Nc1ccc2c(-c3ccncc3)c(-c3ccc(F)cc3)[nH]c2n1` [Compound 22, 6-(4′-amino-1′-oxo-butylamino)-3-(4-pyridyl)-2-(4-fluorophenyl)-7-aza-indole] and `NCCCCC(=O)Nc1ccc2c(-c3ccncc3)c(-c3ccc(F)cc3)[nH]c2n1` [Compound 77, 6-(5′-amino-1′-oxo-pentylamino)-3-(4-pyridyl)-2-(4-fluorophenyl)-7-aza-indole] cannot be ordered by IC50: under 20 µM for the first, under 20 µM for the second.

`Nc1nc2[nH]c(-c3ccc(F)cc3)c(-c3ccncc3)c2cc1Br` [Compound 27, 6-Amino-5-bromo-3-(4-pyridyl)-2-(4-fluorophenyl)-7-aza-indole] and `Nc1nc2[nH]c(-c3ccc(F)cc3)c(-c3ccncc3)c2cc1F` [Compound 28, 6-Amino-5-fluoro-3-(4-pyridyl)-2-(4-fluorophenyl)-7-aza-indole] cannot be ordered by IC50: under 20 µM for the first, under 20 µM for the second.

`NC(=O)NCCC[C@H](N)C(=O)Nc1ccc2c(-c3ccncc3)c(-c3ccc(F)cc3)[nH]c2n1` [Compound 65, 6-(5′-ureido-1′-oxo-2′-aminopentylamino)-3-(4-pyridyl)-2-(4-fluorophenyl)-7-aza-indole] and `NCCCC[C@H](N)C(=O)Nc1ccc2c(-c3ccncc3)c(-c3ccc(F)cc3)[nH]c2n1` [Compound 67, 6-(6′-amino-1′-oxo-2′-aminohexylamino)-3-(4-pyridyl)-2-(4-fluorophenyl)-7-aza-indole] cannot be ordered by IC50: under 20 µM for the first, under 20 µM for the second.

`CC(C)(C)OC(=O)NCCCC[C@H](NC(=O)OC(C)(C)C)C(=O)Nc1ccc2c(-c3ccncc3)c(-c3ccc(F)cc3)[nH]c2n1` [Compound 66, 6-(6′-t-butoxycarbonylamino-1′-oxo-2′-t-butoxycarbonylaminohexylamino)-3-(4-pyridyl)-2-(4-fluorophenyl)-7-aza-indole] and `CC(C)(C)OC(=O)NCCC[C@H](NC(=O)OC(C)(C)C)C(=O)Nc1ccc2c(-c3ccncc3)c(-c3ccc(F)cc3)[nH]c2n1` [Compound 68, 6-(5′-t-butoxycarbonylamino-1′-oxo-2′-t-butoxycarbonylaminopentylamino)-3-(4-pyridyl)-2-(4-fluorophenyl)-7-aza-indole] cannot be ordered by IC50: under 20 µM for the first, under 20 µM for the second.

`CC(C)[C@H](N)C(=O)Nc1ccc2c(-c3ccncc3)c(-c3ccc(F)cc3)[nH]c2n1` [Compound 73, 6-(3′-Methyl-1′-oxo-2′-aminobutylamino)-3-(4-pyridyl)-2-(4-fluorophenyl)-7-aza-indole] and `CC(O)[C@H](N)C(=O)Nc1ccc2c(-c3ccncc3)c(-c3ccc(F)cc3)[nH]c2n1` (stereo partly shown) [Compound 85, 6-(3′-hydroxy-1′-oxo-2′-aminobutylamino)-3-(4-pyridyl)-2-(4-fluorophenyl)-7-aza-indole] cannot be ordered by IC50: under 20 µM for the first, under 20 µM for the second.

`CC(C)(C)C[C@H](N)C(=O)Nc1ccc2c(-c3ccncc3)c(-c3ccc(F)cc3)[nH]c2n1` [Compound 75, 6-(4′,4′-Dimethyl-1′-oxo-2′-aminopentylamino)-3-(4-pyridyl)-2-(4-fluorophenyl)-7-aza-indole] and `N[C@@H](CCC(=O)O)C(=O)Nc1ccc2c(-c3ccncc3)c(-c3ccc(F)cc3)[nH]c2n1` [Compound 83, 6-(4′-carboxy-1′-oxo-2′-aminobutylamino)-3-(4-pyridyl)-2-(4-fluorophenyl)-7-aza-indole] cannot be ordered by IC50: under 20 µM for the first, under 20 µM for the second.

`NCCCCCC(=O)Nc1ccc2c(-c3ccncc3)c(-c3ccc(F)cc3)[nH]c2n1` [Compound 79, 6-(6′-amino-1′-oxo-hexylamino)-3-(4-pyridyl)-2-(4-fluorophenyl)-7-aza-indole] and `NCCC(=O)Nc1ccc2c(-c3ccncc3)c(-c3ccc(F)cc3)[nH]c2n1` [Compound 91, 6-(3′-amino-1′-oxo-propylamino)-3-(4-pyridyl)-2-(4-fluorophenyl)-7-aza-indole] cannot be ordered by IC50: under 20 µM for the first, under 20 µM for the second.

`N[C@@H](CC1CCCCC1)C(=O)Nc1ccc2c(-c3ccncc3)c(-c3ccc(F)cc3)[nH]c2n1` [Compound 81, 6-(3′-cyclohexyl-1′-oxo-2′-aminopropylamino)-3-(4-pyridyl)-2-(4-fluorophenyl)-7-aza-indole] and `N[C@@H](Cc1ccc(O)cc1)C(=O)Nc1ccc2c(-c3ccncc3)c(-c3ccc(F)cc3)[nH]c2n1` [Compound 89, 6-(3′-(4-hydroxyphenyl)-1′-oxo-2′-aminopropylamino)-3-(4-pyridyl)-2-(4-fluorophenyl)-7-aza-indole] cannot be ordered by IC50: under 20 µM for the first, under 1 µM for the second.

`CS(=O)(=O)Nc1ccc2c(-c3ccncc3)c(-c3ccc(F)cc3)[nH]c2n1` [Compound 93, 6-(methylsulfonylamino)-3-(4-pyridyl)-2-(4-fluorophenyl)-7-aza-indole] and `O=S(=O)(Nc1ccc2c(-c3ccncc3)c(-c3ccc(F)cc3)[nH]c2n1)c1ccc(Cl)s1` [Compound 95, 6-(2′-(5-chlorothienyl)sulfonylamino)-3-(4-pyridyl)-2-(4-fluorophenyl)-7-aza-indole] cannot be ordered by IC50: under 20 µM for the first, under 20 µM for the second.

`O=C(CCN1C(=O)c2ccccc2C1=O)Nc1ccc2c(-c3ccncc3)c(-c3ccc(F)cc3)[nH]c2n1` [Compound 98, 6-(3′-N-phthaloyl-1′-oxo-propylamino)-3-(4-pyridyl)-2-(4-fluorophenyl)-7-aza-indole] was tested, and the IC50 was under 20 µM.
